Results as given in patent publication US20230138178A1, “Methods and Compositions for Producing a Heterologous Antiviral Compound in a Host Cell” (priority 2019, published 2023).
“Also recorded” adds a separate entry of the source.

Tests used:
[1] = system: host cell physiology; conditions: cited from earlier work
[2] = system: WNV; conditions: previous study; cited from earlier work
[3] = system: TLR-mediated Type 1 interferon signaling; assay: TLR-mediated Type 1 interferon signaling in macrophages; format: cell-based
[4] = system: flavivirus; conditions: endogenously produced and exogenously administered; Gizzi et al., 2018; cited from earlier work
[5] = system: HSV-1; format: cell-based, Herpes Simplex Virus 1; conditions: mouse macrophages/BMDMs pre-treated with 1 mM ddhC; MOI 1 or 10; 24 hours; flow cytometry; preliminary
[6] = system: DV; conditions: previous study; cited from earlier work
[7] = system: HCV; conditions: previous study; cited from earlier work
[8] = system: ZIKV; conditions: previous study; cited from earlier work
[9] = system: Viperin expression; assay: Viperin expression in Poly(I:C)-stimulated BMDMs (qPCR); conditions: 1 mM ddhC co-stimulated with 25 ug/mL Poly(I:C)
[10] = system: M. tuberculosis; assay: M. tuberculosis growth in ddhC-stimulated macrophages; format: cell-based, Mycobacterium tuberculosis; conditions: ddhC-stimulated macrophages vs Vehicle or Cytidine; preliminary
[11] = system: Vaccinia virus; format: cell-based
[12] = system: LCMV; format: cell-based, lymphocytic choriomeningitis virus; conditions: BMDMs pre-treated with 1 mM ddhC; MOI 1 or 10; 24 hours; qPCR; preliminary
[13] = system: TLR-mediated NFkB activation; assay: TLR-mediated NFkB activation, RAW264.7 NFkB reporter cells; format: cell-based; conditions: for TLR-mediated NFkB activation: RAW264.7 NFkB reporter, pre-treated overnight, 500 ng/mL LPS, 1 μg/mL PAM, or 1 μg/mL R848

Nc1ccn([C@@H]2OC(COP(=O)(O)OP(=O)(O)OP(=O)(O)O)=C[C@H]2O)c(=O)n1 [ddhCTP, 3′-deoxy-3′, 4′-didehydro-CTP]
cytotoxic effects on host cell physiology [1]: no cytotoxic effects | toxicity to the host [1]: minimal evidence of toxicity | suppression of WNV [2]: can suppress | TLR4-mediated Type 1 interferon induction ([3]; preliminary results): suppresses | flavivirus infection restriction [4]: restricts | HSV-1 replication / infectivity [5]: increases | suppression of DV [6]: can suppress | suppression of HCV [7]: can suppress | suppression of ZIKV [8]: can suppress

Nc1ccn([C@@H]2OC(CO)=C[C@H]2O)c(=O)n1 [ddhC]
toxicity to the host [1]: minimal evidence of toxicity | Poly(I:C)-induced Viperin upregulation [9]: dampened | M. tuberculosis growth restriction [10]: lead to restriction; also recorded: restrict M. tuberculosis growth greater than those treated with Vehicle or Cytidine | Vaccinia virus infection [11]: negligible effects | TLR-mediated Type 1 interferon signaling ([3]; macrophages, preliminary data): modulates | flavivirus infection restriction [4]: restricts | HSV-1 replication / infectivity [5]: increases replication; also recorded: increasing | LCMV replication [12]: suppresses replication | TLR-mediated NFkB activation [13]: agonize | TLR-mediated NFkB signaling in macrophages ([13]; macrophages, preliminary data): modulates

Nc1nc2c(ncn2[C@@H]2OC(CO)=C[C@H]2O)c(=O)[nH]1 [ddhG]
TLR-mediated NFkB activation [13]: agonize
